Measured values from PMC9484092, “Three novel leaderless bacteriocins have antimicrobial activity against gram-positive bacteria to serve as promising food biopreservative” (Microbial Cell Factories, 2022).
No end group written: not given here. *: point of attachment. For = O=C*

Experiments:
[1] = test system: Bacillus thuringiensis P86; test: MIC, agar well diffusion; assay type: cell-based; settings: Bacillus thuringiensis P86 (thucin A1 producer strain), LB, lowest concentration forming a clear zone, highest concentration 60 μM
Description: (§1) Antibacterial activity against various indicator strains were determined by the agar well diffusion method. Briefly, each of the indicator strains (10^6 CFU/mL) was spread on a LB agar plate (45 °C) with wells (diameter = 6 mm). Then, 50 μL bacteriocin solution was added to the wells. The plate was kept at 4 °C for 2 h and subsequently incubated at a temperature suitable for the growth of the indicator strains for 12 h, followed by the measurement of inhibition zone to assess the antimicrobial activity.
(§2) The minimum inhibitory concentrations (MICs) of the bacteriocins against various indicator strains were determined by a previously described method. Briefly, the antimicrobial activities of different final concentrations bacteriocin solutions were measured by the agar well diffusion method described above. The MIC was defined at the lowest concentration of samples that could form a clear zone of inhibition.

[2] = test system: Staphylococcus aureus ATCC 43300; assay type: cell-based; settings: ATCC 43300, 2 h
Description: as §1, §2

[3] = test system: Staphylococcus succinus SYY04; assay type: cell-based; settings: 2 h
Description: as §1, §2

[4] = test system: Bacillus cereus ATCC 14579; assay type: cell-based; settings: ATCC 14579, 12 h
Description: as §1, §2

Bacillus firmus DS-1 = assay type: cell-based; settings: 2 h
Description: as §1, §2

Bacillus cereus UW85 = assay type: cell-based; settings: UW85, 2 h
Description: as §1, §2

Bacillus subtilis 168 = assay type: cell-based; settings: 168, 2 h
Description: as §1, §2

[5] = test system: Lysinibacillus fusiformis ZZY15-1; assay type: cell-based; settings: 2 h
Description: as §1, §2

Rhodococcus sp. ZCH08 = assay type: cell-based; settings: 2 h
Description: as §1, §2

[6] = test system: Listeria monocytogenes LM201; assay type: cell-based; settings: LM201, 2 h
Description: as §1, §2

[7] = test system: Bacillus thuringiensis BMB171; assay type: cell-based; settings: 2 h
Description: as §1, §2

Bacillus siamensis HCX05 = assay type: cell-based; settings: 2 h
Description: as §1, §2

Bacillus pumilus SCG1 = assay type: cell-based; settings: 2 h
Description: as §1, §2

[8] = test system: Listeria monocytogenes LM605; assay type: cell-based; settings: LM605, 2 h
Description: as §1, §2

[9] = test system: Glutamicibacter arilaitensis HCX33; assay type: cell-based; settings: 2 h
Description: as §1, §2

Bacillus subtilis Bsn5 = assay type: cell-based; settings: Bsn5, 2 h
Description: as §1, §2

Bacillus simplex SYY08 = assay type: cell-based; settings: 2 h
Description: as §1, §2

proteinase K = proteinase K (Parengyodontium album, UniProt P06873); test: Protease stability, residual antimicrobial activity; assay type: in vitro ADME; settings: 4× MIC mixed 1:1 (v/v) with proteinase K 1 mg/mL (≥ 40 U/mg), 37 °C, 2 h; agar well diffusion, B. cereus ATCC 14579; triplicate
Description: as §1
Nisin A was commercial nisin A (Sigma-Aldrich, Shanghai, China) purified by HPLC as described above. The purity of nisin A and thucin A1 was all greater than 95% based on the ratio of absorption peak area at 210 nm. The stability assay was performed by previously described method with some modifications. To compare the pH stability of thucin A1 and nisin A, the bacteriocin solutions (1× , 2× , 4× , 8× MIC) were adjusted to pH 2.0, 3.0, 4.0, 5.0, 6.0, 7.0, 8.0, 9.0, 10.0, 11.0 and 12.0 with 0.5 M NaOH or 0.5 M HCl solution, followed by incubation at 37 °C for 4 h. The residual antimicrobial activity was tested after neutralizing the sample to pH 6.0. […] The indicator strain used in this experiment was B. cereus ATCC 14579 and the antimicrobial activity was determined with the agar well diffusion method as described above. […]

Sequence of proteinase K (P06873 106-384): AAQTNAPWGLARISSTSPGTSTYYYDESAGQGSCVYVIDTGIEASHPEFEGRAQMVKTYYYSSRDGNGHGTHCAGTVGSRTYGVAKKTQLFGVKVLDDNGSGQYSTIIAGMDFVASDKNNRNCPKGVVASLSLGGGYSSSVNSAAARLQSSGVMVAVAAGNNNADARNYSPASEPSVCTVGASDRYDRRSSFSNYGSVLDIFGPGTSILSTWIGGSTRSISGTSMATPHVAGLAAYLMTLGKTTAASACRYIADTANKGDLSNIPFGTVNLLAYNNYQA

With “For-MIAFLRIVAQLGARAARWAWANKDRVLGWIRDGMAIDWIINKINDMVS [Thucin A1]” as the substance, how does the MIC [1] read?
The MIC was 7.5 µM.

And the MIC [2]?
The MIC was 15 µM.

What about the MIC [3] of the same substance?
Its MIC is 15 µM.

And the MIC [4]?
Its MIC is 1.88 µM.

And the MIC (Bacillus firmus DS-1)?
Its MIC is 3.75 µM.

What about the MIC (Bacillus cereus UW85) of the same substance?
Its MIC is 1.88 µM.

What about the MIC (Bacillus subtilis 168) of the same substance?
Its MIC is 3.75 µM.

What about the MIC [5] of the same substance?
Its MIC is 7.5 µM.

And the MIC (Rhodococcus sp. ZCH08)?
The MIC was 15 µM.

What about the MIC [6] of the same substance?
The MIC was 0.47 µM.

What about the MIC [7] of the same substance?
The MIC was 1.88 µM.

And the MIC (Bacillus siamensis HCX05)?
Its MIC is 3.75 µM.

And the MIC (Bacillus pumilus SCG1)?
The MIC was 3.75 µM.

What about the MIC [8] of the same substance?
The MIC was 0.47 µM.

What about the MIC [9] of the same substance?
Its MIC is 7.5 µM.

What about the MIC (Bacillus subtilis Bsn5) of the same substance?
Its MIC is 3.75 µM.

What about the MIC (Bacillus simplex SYY08) of the same substance?
The MIC was 1.88 µM.

What about the “residual antimicrobial activity after digestion with proteinase K” value (proteinase K) of the same substance?
Its value is “completely lost its antimicrobial activity”.
